In the NIST ThermoML archive (doi:10.1021/acs.jced.7b01101):
Numbers after ± are expanded uncertainties.

How the values were obtained:
[1] = refractive index (Na D-line) (dimensionless); wn = mass fraction of the nth substance listed; settings: 293.15 K, 100 kPa, Liquid, Standard Abbe refractometry
[2] = refractive index (Na D-line) (dimensionless); an = ratio of the nth substance listed; settings: 293.15 K, 100 kPa, Liquid, Standard Abbe refractometry
[3] = wn = mass fraction of the nth substance listed; settings: 100 kPa, Liquid; for electrical conductivity: 293.15 K, Alternating current cell with electrodes; for viscosity / mass density: 298.15 K; for viscosity: Concentric cylinders viscometry; for mass density: Vibrating tube method
[4] = an = ratio of the nth substance listed; settings: 100 kPa, Liquid; for electrical conductivity: 293.15 K, Alternating current cell with electrodes; for viscosity / mass density: 298.15 K; for viscosity: Concentric cylinders viscometry; for mass density: Vibrating tube method
[5] = 100 kPa, Liquid; for viscosity: Concentric cylinders viscometry
[6] = refractive index (Na D-line) (dimensionless); settings: 293.15 K; 100 kPa; Liquid; Standard Abbe refractometry

NCCO [2-aminoethan-1-ol] + O
Settings	electrical conductivity, [3] [S/m]	electrical conductivity, [4] [S/m]	mass density, [3] [kg/m3]	mass density, [4] [kg/m3]	refractive index, [1]	refractive index, [2]	viscosity, [3] [mPa·s]	viscosity, [4] [mPa·s]
a2 = 1.5	–	0.046 ± 0.005	–	1018.3 ± 1	–	1.3854 ± 0.002	–	3.5 ± 0.53
a2 = 2.333	–	0.072 ± 0.007	–	1012.9 ± 1	–	1.372 ± 0.002	–	2.6 ± 0.39
a2 = 4	–	0.102 ± 0.01	–	1007.1 ± 1	–	1.3587 ± 0.002	–	1.7 ± 0.26
w1 = 0.2	0.102 ± 0.012	–	1007.1 ± 1.5	–	1.3587 ± 0.0033	–	1.7 ± 0.28	–
w1 = 0.3	0.072 ± 0.0091	–	1012.9 ± 1.5	–	1.3718 ± 0.0033	–	2.6 ± 0.43	–
w1 = 0.4	0.0461 ± 0.0063	–	1018.3 ± 1.4	–	1.3852 ± 0.0033	–	3.5 ± 0.6	–
w1 = 0.5	0.029 ± 0.0045	–	1022.1 ± 1.2	–	1.3975 ± 0.0034	–	5.4 ± 1	–
w1 = 0.6	0.0111 ± 0.0023	–	1025.1 ± 1.1	–	1.4126 ± 0.0033	–	9.67 ± 1.6	–
w1 = 0.7	0.0089 ± 0.0012	–	1026.5 ± 1	–	1.423 ± 0.0032	–	12.26 ± 2.1	–
w1 = 0.8	0.0034 ± 0.0007	–	1024.7 ± 1.2	–	1.4368 ± 0.0029	–	20.39 ± 3.1	–
w1 = 0.9	0.0032 ± 0.0003	–	1020.4 ± 1.6	–	1.4444 ± 0.0028	–	19.45 ± 2.9	–
w1 = 1	0.0031 ± 0.0003	–	1012 ± 1	–	1.456 ± 0.002	–	18.75 ± 2.8	–

O [water] + NCCO
w2 = 0
Settings	refractive index	viscosity [mPa·s]
[1]	1.333 ± 0.002	–
[3]	–	0.89 ± 0.13

NCCO [2-aminoethan-1-ol]
[5]
Settings	electrical conductivity [S/m]	mass density [kg/m3]
293.15 K, Alternating current cell with electrodes	0.0031 ± 0.0003	–
298.15 K, Vibrating tube method	–	1012 ± 1

Settings	viscosity [mPa·s]
[5], 298.15 K	18.75 ± 2.8

Settings	refractive index
[6]	1.456 ± 0.002

O [water]
Settings	viscosity [mPa·s]
[5], 298.15 K	0.89 ± 0.13

Settings	refractive index
[6]	1.333 ± 0.002
